Data reported in patent US12084479B2, “Modified antimicrobial peptide derived from an arginine-rich domain” (priority 2016, dated 2024).
≈ marks a conversion by molar mass, not a printed value. Like-named read-outs stand apart in the source and are kept apart here. Where a SMILES comes first, the peptide text is derived from it. Where no end group is shown, it is not given here. [ ]: non-standard residue; d: D form.

How the values were obtained:
[1] = tested on: human red blood cells (hRBCs); experiment: Hemolytic activity; format: cell-based; settings: up to 460 mg/L, 37° C., one hour
Description: In the hemolysis assay, human RBCs were incubated with serially-diluted doses (0 to 460 mg/L) of D-HBcARD, L-HBcARD, or melittin, at 37° C. for one hour.
The hemolytic activities of peptides were determined by hemolysis against human red blood cells (hRBCs). Human blood was obtained in EDTA-containing tube and was centrifuged at 450 g for 10 min. The pellet was washed three times with PBS buffer, and a solution of 10% hRBCs was prepared. hRBCs solution was mixed with serial dilutions of peptides in PBS buffer, and the reaction mixtures were incubated for 1 h at 37° C. After centrifugation at 450 g for 10 min, the percentage of hemolysis was determined by measuring the absorbance at the wavelength of 405 nm of the supernatant. Blank and 100% hemolysis were determined in PBS buffer and in the presence of 1% Triton X-100, respectively.

S. aureus = format: cell-based, Staphylococcus aureus
Description: (§1) The antimicrobial activities of HBcARD peptides were tested using a number of bacterial strains, including Pseudomonas aeruginosa Migula strains (ATCC 27853, ampicillin-resistant and ATCC 9027, ampicillin-resistant), Klebsiella pneumoniae strain (ATCC 13884), Shigella dysenteriae Xen27 (Caliper Co.), Escherichia coli strain (ATCC 25922), Staphylococcus aureus subsp. strains (ATCC 25923, methicillin-resistantATCC 29213, methicillin-resistant and ATCC 19636, methicillin-resistant) and Acinetobacter baumannii strains (ATCC 17978, ATCC 17978 CR, ATCC19606, ATCC 19606 CR, TCGH 45530 and TCGH 46709). Clinical isolates TCGH 45530 and TCGH 46709 were obtained from Tzu-Chi Buddhist General Hospital (TCGH) in Taiwan, and were identified using the Vitek system (Biomerieux Vitek, Inc., Hazelwood, MO, USA). See Chang et al. (2012), J Microbiol Immunol Infect 45:37-42 doi:10.1016/j.jmii.2011.09.019.
(§2) L- and D-HBcARD peptides were purchased from Yao-Hong Biotechnology Inc. (Taipei, Taiwan). Antimicrobial activity was determined as described. See, Chen et al., 2013. Briefly, bacteria were grown in MH broth (Difco) to mid-logarithmic phase at 37° C., and were diluted to 10^6 CFU (colony formation unit)/ml in phosphate buffer (10 mM sodium phosphate and 50 mM sodium chloride, pH 7.2). Peptides were serially diluted in the same buffer. Fifty microliters (μl) of bacteria were mixed with fifty μl of peptides at varying concentrations, followed by incubation at 37° C. for 3 hours without shaking. At the end of incubation, bacteria were placed on Mueller-Hinton broth agar plates, and allowed to grow at 37° C. overnight for measurement of minimal bactericidal concentration (MBC).
(§3) All peptides were tested in triplicate.

[2] = Protease resistance assay (serum stability), SDS-PAGE and Green Angel staining; format: in vitro ADME; settings: 5% bovine serum, 37° C.
Description: To compare the stability of the 37-mer L- and D-HBcARD peptides against serum protease degradation, we performed a protease resistance assay. After incubation with 5% bovine serum at 37° C. for 3 hours, more than 80% of L-HBcARD peptide was no longer detectable by staining with Green Angel on SDS-PAGE. In contrast, the signal intensity of the D-HBcARD peptide was not reduced under the same condition.
L- and D-HBcARD peptides (0.5 nmol) were mixed with MBC buffer in the presence or absence of 5% serum collected from bovine, mouse and human origins. After incubation at 37° C. for 3 hours, the amounts of peptides surviving the protease digestion were determined by SDS-PAGE electrophoresis and staining with Green Angel. The images were quantified using image J software and the intensities were normalized with the no serum control. To investigate the effect of serum on the antimicrobial activity of HBcARD peptides, L- and D-HBcARD peptides at their respective MBC concentrations were incubated with S. aureus ATCC19636 strain (10^6 CFU/ml) at 37° C. for three hours. Bacteria were plated on MH agar and the antimicrobial activity was determined by colony formation.

A. baumannii = format: cell-based, Acinetobacter baumannii
Description: as §1, §2, §3

E. coli = format: cell-based, Escherichia coli
Description: as §1, §2, §3

P. aeruginosa = format: cell-based, Pseudomonas aeruginosa
Description: as §1, §2, §3

S. aureus ATCC 19636 = experiment: Immunogenicity: sepsis model in peptide-immunized mice; format: in vivo, ICR mice; settings: immunized three times with 5 mg/kg peptide
Description: FIG. 4 is a set of graphs showing comparison of in vivo protection activities between L- and D-form HBcARD peptides in a mouse sepsis model infected with S. aureus. (A) Three week-old ICR mice were inoculated with S. aureus (4×10^6 CFU/mouse) and i.p. injected with PBS, L-HBcARD, or D-HBcARD at 2 hours post-inoculation. Each group contained ten mice. (B) and (C) Three week-old ICR mice were immunized with L- and D-HBcARD peptides (5 mg/kg), respectively, at day 0, 3 and 6. On day 14, the mice were inoculated with S. aureus (4×10^6 CFU/mouse) and i.p. injected with PBS, L-HBcARD or D-HBcARD (10 mg/kg) at 1 hour post-inoculation, respectively. Another group of mice were treated with PBS in parallel as a control. Each group of animals contained five mice. *P<0.05; ***P<0.0001; ns, no significance.
To investigate whether repeated treatments with the 37-mer HBcARD peptides may compromise the efficacy by inducing neutralization antibody in vivo, we immunized 3-week old mice three times with L- and D-HBcARD peptides, respectively, prior to bacterial infection. […]
To investigate the potential immunogenicity of HBcARD peptides, we determined the in vivo antimicrobial activity of HBcARD peptide in peptide-immunized mice. […] Mortality was monitored daily for 7 days following the bacterial inoculation.

S. dysenteriae Xen27 = format: cell-based, Shigella dysenteriae
Description: as §1
L- and D-HBcARD peptides were purchased from Yao-Hong Biotechnology Inc. (Taipei, Taiwan). Antimicrobial activity was determined as described. See, Chen et al., 2013. Briefly, bacteria were grown in MH broth (Difco) to mid-logarithmic phase at 37° C., and were diluted to 10^6 CFU (colony formation unit)/ml in phosphate buffer (10 mM sodium phosphate and 50 mM sodium chloride, pH 7.2). Peptides were serially diluted in the same buffer. […]

K. pneumoniae = format: cell-based, Klebsiella pneumoniae
Description: as §1, §2, §3

[3] = tested on: colistin-resistant A. baumannii TCGH 46709; experiment: Mouse lung infection model, intra-tracheal inoculation; format: in vivo, BALB/c mice; settings: 5 mg/kg/day ip.
Description: FIG. 6 is a graph showing in vivo protection efficacies of 150-177C and 150-177Q peptides in a BALB/c mouse lung infection model. Colistin-resistant A. baumannii was inoculated via intra-tracheal route.
BALB/c mice (n=8/group) were intra-tracheally inoculated with colistin-resistant A. baumannii TCGH 46709 (3.4×10^8 cfu/mouse). These lung-infected mice were ip. treated with colistin (5 mg/kg/day) or D-150-177C (5 and 10 mg/kg/day), respectively.

| Compound | hemolytic activity [1] | MBC (S. aureus) [µg/mL] | signal intensity of the peptide after serum incubation ([2]; 3 hours) | MBC (A. baumannii) [µg/mL] | Minimal bactericidal concentration (E. coli) [µg/mL] | Minimal bactericidal concentration (P. aeruginosa) [µg/mL] | neutralization activity induced by prior immunizations (S. aureus ATCC 19636) | Minimal bactericidal concentration (S. dysenteriae Xen27; S. dysenteriae Xen27) [µg/mL] | Minimal bactericidal concentration (S. aureus) [µg/mL] | Minimal bactericidal concentration (K. pneumoniae) [µg/mL] | metabolised at 3 h ([2]; read-out: peptide no longer detectable by staining with Green Angel on SDS-PAGE) [%] | Minimal bactericidal concentration (S. dysenteriae Xen27) [µg/mL] | survival outcome [3] |
| --- | --- | --- | --- | --- | --- | --- | --- | --- | --- | --- | --- | --- | --- |
| CC(C)[C@H](NC(=O)[C@@H](NC(=O)[C@@H](N)[C@@H](C)O)C(C)C)C(=O)N[C@H](CCCNC(=N)N)C(=O)N[C@H](CCCNC(=N)N)C(=O)N[C@H](CCCNC(=N)N)C(=O)NCC(=O)N[C@H](CCCNC(=N)N)C(=O)N[C@@H](CO)C(=O)N1CCC[C@H]1C(=O)N[C@H](CCCNC(=N)N)C(=O)N[C@H](CCCNC(=N)N)C(=O)N[C@H](CCCNC(=N)N)C(=O)N[C@H](C(=O)N1CCC[C@H]1C(=O)N[C@@H](CO)C(=O)N1CCC[C@H]1C(=O)N[C@H](CCCNC(=N)N)C(=O)N[C@H](CCCNC(=N)N)C(=O)N[C@H](CCCNC(=N)N)C(=O)N[C@H](CCCNC(=N)N)C(=O)N[C@@H](CO)C(=O)N[C@@H](CCC(N)=O)C(=O)N[C@@H](CO)C(=O)N1CCC[C@H]1C(=O)N[C@H](CCCNC(=N)N)C(=O)N[C@H](CCCNC(=N)N)C(=O)N[C@H](CCCNC(=N)N)C(=O)N[C@H](CCCNC(=N)N)C(=O)N[C@@H](CO)C(=O)N[C@@H](CCC(N)=O)C(=O)N[C@@H](CO)C(=O)N[C@H](CCCNC(=N)N)C(=O)N[C@@H](CCC(=O)O)C(=O)N[C@@H](CO)C(=O)N[C@@H](CCC(N)=O)C(=O)N[C@@H](CS)C(=O)O)[C@@H](C)O [D-HBcARD, TVVrrrGrSPrrrTPSPrrrrSQSPrrrrSQSrESQC] (H-TVV[dR][dR][dR]G[dR]SP[dR][dR][dR]TPSP[dR][dR][dR][dR]SQSP[dR][dR][dR][dR]SQS[dR]ESQC-OH; N-terminus and C-terminus assumed) | no hemolytic activity | 4.6 to 9.2 | not reduced | 2.3 to 4.6 | 73.6 (≈ 16 µM) | 4.6 (≈ 1 µM) | no neutralization activity | 73.6 (≈ 16 µM) |  |  |  |  |  |
| TVVRRRGRSPRRRTPSPRRRRSQSPRRRRSQSRESQC [L-HBcARD] | no hemolytic activity |  |  |  | 18.4 |  | no neutralization activity |  | 18.4 | 9.2 | > 80 | 18.4 |  |
| colistin |  |  |  |  |  |  |  |  |  |  |  |  | died at 60 hours post-inoculation |
